Assay results from the supplement of paper PMC10307832.

Experiments:
Assay in all cases: relative viability (nuclei count vs DMSO), 5 days (fraction); higher = more cells survive
[1] = test system: ABC-1
Outline: (§1)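 A single step with final 0.05% Triton X-100, 1% formaldehyde and 1 ug/ml Hoechst fixed the cells and stained nuclei 5 days after treatment. Lung cancer cell lines in 1536-well plates had been treated by pin tool the day after seeding with one drug alone or a fixed anchor-drug dose plus five library-drug doses (not always all listed) in √10 steps, and nuclei were counted on 4× images. Relative viability is the ratio of nuclei in treated wells to nuclei in vehicle wells, taken as the median of duplicate plates.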

[2] = test system: CAL-12T
Outline: as §1

[3] = test system: ChaGo-K-1
Outline: as §1

[4] = test system: HCC-366
Outline: as §1

[5] = test system: HCC-78
Outline: as §1

[6] = test system: LC-2-ad
Outline: as §1

[7] = test system: LOU-NH91
Outline: as §1

[8] = test system: LU99A
Outline: as §1

[9] = test system: NCI-H1651
Outline: as §1

[10] = test system: NCI-H1734
Outline: as §1

[11] = test system: NCI-H1755
Outline: as §1

[12] = test system: NCI-H1944
Outline: as §1

[13] = test system: NCI-H2087
Outline: as §1

[14] = test system: NCI-H2170
Outline: as §1

[15] = test system: NCI-H2228
Outline: as §1

[16] = test system: NCI-H2405
Outline: as §1

[17] = test system: NCI-H3122
Outline: as §1

[18] = test system: NCI-H460
Outline: as §1

[19] = test system: PC-3 [JPC-3]
Outline: as §1

[20] = test system: RERF-LC-KJ
Outline: as §1

[21] = test system: UMC-11
Outline: as §1

Q: How did the relative viability ([1]; first compound 0.01 µM) turn out when `NC(=O)Nc1cc(-c2cccc(F)c2)sc1C(=O)N[C@H]1CCCNC1` [AZD7762] + C[C@@H](Oc1cc(-c2cnn(C3CCNCC3)c2)cnc1N)c1c(Cl)ccc(F)c1Cl [Crizotinib] (partner 1 µM) was run?
A: Its relative viability is 1.1.

Q: What about the relative viability ([1]; first compound 0.03162 µM) of the same molecule?
A: The relative viability was 1.56.

Q: And the relative viability ([1]; first compound 0.1 µM)?
A: The relative viability was 0.842.

Q: And the relative viability ([1]; first compound 0.3162 µM)?
A: The relative viability was 0.49.

Q: And the relative viability ([1]; first compound 1 µM)?
A: Its relative viability is 0.13.

Q: What about the relative viability ([2]; first compound 0.01 µM) of the same molecule?
A: Its relative viability is 0.735.

Q: And the relative viability ([2]; first compound 0.03162 µM)?
A: The relative viability was 0.554.

Q: What about the relative viability ([2]; first compound 0.1 µM) of the same molecule?
A: The relative viability was 0.486.

Q: And the relative viability ([2]; first compound 0.3162 µM)?
A: Its relative viability is 0.33.

Q: And the relative viability ([2]; first compound 1 µM)?
A: The relative viability was 0.105.

Q: What about the relative viability ([3]; first compound 0.01 µM) of the same molecule?
A: The relative viability was 1.21.

Q: And the relative viability ([3]; first compound 0.03162 µM)?
A: Its relative viability is 1.04.

Q: And the relative viability ([3]; first compound 0.1 µM)?
A: Its relative viability is 1.14.

Q: And the relative viability ([3]; first compound 0.3162 µM)?
A: The relative viability was 1.07.

Q: What about the relative viability ([3]; first compound 1 µM) of the same molecule?
A: The relative viability was 0.64.

Q: What about the relative viability ([4]; first compound 0.01 µM) of the same molecule?
A: The relative viability was 0.678.

Q: What about the relative viability ([4]; first compound 0.03162 µM) of the same molecule?
A: Its relative viability is 0.478.

Q: What about the relative viability ([4]; first compound 0.1 µM) of the same molecule?
A: Its relative viability is 0.542.

Q: And the relative viability ([4]; first compound 0.3162 µM)?
A: The relative viability was 0.323.

Q: And the relative viability ([4]; first compound 1 µM)?
A: Its relative viability is 0.0525.

Q: What about the relative viability ([5]; first compound 0.01 µM) of the same molecule?
A: The relative viability was 0.364.

Q: And the relative viability ([5]; first compound 0.03162 µM)?
A: The relative viability was 0.35.

Q: And the relative viability ([5]; first compound 0.1 µM)?
A: The relative viability was 0.317.

Q: What about the relative viability ([5]; first compound 0.3162 µM) of the same molecule?
A: The relative viability was 0.326.

Q: What about the relative viability ([5]; first compound 1 µM) of the same molecule?
A: The relative viability was 0.255.

Q: And the relative viability ([6]; first compound 0.01 µM)?
A: The relative viability was 0.551.

Q: What about the relative viability ([6]; first compound 0.03162 µM) of the same molecule?
A: The relative viability was 0.483.

Q: What about the relative viability ([6]; first compound 0.1 µM) of the same molecule?
A: Its relative viability is 0.52.

Q: What about the relative viability ([6]; first compound 0.3162 µM) of the same molecule?
A: Its relative viability is 0.522.

Q: And the relative viability ([6]; first compound 1 µM)?
A: Its relative viability is 0.295.

Q: And the relative viability ([7]; first compound 0.01 µM)?
A: The relative viability was 0.764.

Q: What about the relative viability ([7]; first compound 0.03162 µM) of the same molecule?
A: The relative viability was 0.731.

Q: And the relative viability ([7]; first compound 0.1 µM)?
A: Its relative viability is 0.746.

Q: And the relative viability ([7]; first compound 0.3162 µM)?
A: The relative viability was 0.76.

Q: And the relative viability ([7]; first compound 1 µM)?
A: The relative viability was 0.546.

Q: And the relative viability ([8]; first compound 0.01 µM)?
A: The relative viability was 0.725.

Q: And the relative viability ([8]; first compound 0.03162 µM)?
A: Its relative viability is 0.67.

Q: What about the relative viability ([8]; first compound 0.1 µM) of the same molecule?
A: The relative viability was 0.602.

Q: And the relative viability ([8]; first compound 0.3162 µM)?
A: The relative viability was 0.587.

Q: And the relative viability ([8]; first compound 1 µM)?
A: The relative viability was 0.228.

Q: What about the relative viability ([9]; first compound 0.01 µM) of the same molecule?
A: Its relative viability is 1.

Q: What about the relative viability ([9]; first compound 0.03162 µM) of the same molecule?
A: The relative viability was 0.87.

Q: What about the relative viability ([9]; first compound 0.1 µM) of the same molecule?
A: Its relative viability is 0.894.

Q: And the relative viability ([9]; first compound 0.3162 µM)?
A: Its relative viability is 0.862.

Q: What about the relative viability ([9]; first compound 1 µM) of the same molecule?
A: Its relative viability is 0.714.

Q: What about the relative viability ([10]; first compound 0.01 µM) of the same molecule?
A: The relative viability was 0.837.

Q: What about the relative viability ([10]; first compound 0.03162 µM) of the same molecule?
A: The relative viability was 0.676.

Q: And the relative viability ([10]; first compound 0.1 µM)?
A: The relative viability was 0.869.

Q: And the relative viability ([10]; first compound 0.3162 µM)?
A: Its relative viability is 0.612.

Q: What about the relative viability ([10]; first compound 1 µM) of the same molecule?
A: Its relative viability is 0.458.

Q: And the relative viability ([11]; first compound 0.01 µM)?
A: Its relative viability is 0.901.

Q: And the relative viability ([11]; first compound 0.03162 µM)?
A: Its relative viability is 0.872.

Q: What about the relative viability ([11]; first compound 0.1 µM) of the same molecule?
A: The relative viability was 0.929.

Q: What about the relative viability ([11]; first compound 0.3162 µM) of the same molecule?
A: The relative viability was 0.853.

Q: And the relative viability ([11]; first compound 1 µM)?
A: Its relative viability is 0.508.

Q: And the relative viability ([12]; first compound 0.01 µM)?
A: Its relative viability is 1.29.

Q: What about the relative viability ([12]; first compound 0.03162 µM) of the same molecule?
A: The relative viability was 1.22.

Q: And the relative viability ([12]; first compound 0.1 µM)?
A: The relative viability was 1.2.

Q: What about the relative viability ([12]; first compound 0.3162 µM) of the same molecule?
A: The relative viability was 1.19.

Q: What about the relative viability ([12]; first compound 1 µM) of the same molecule?
A: The relative viability was 0.918.

Q: What about the relative viability ([13]; first compound 0.01 µM) of the same molecule?
A: Its relative viability is 0.906.

Q: And the relative viability ([13]; first compound 0.03162 µM)?
A: The relative viability was 0.879.

Q: And the relative viability ([13]; first compound 0.1 µM)?
A: Its relative viability is 1.02.

Q: And the relative viability ([13]; first compound 0.3162 µM)?
A: The relative viability was 0.825.

Q: And the relative viability ([13]; first compound 1 µM)?
A: The relative viability was 0.846.

Q: And the relative viability ([14]; first compound 0.01 µM)?
A: Its relative viability is 1.2.

Q: And the relative viability ([14]; first compound 0.03162 µM)?
A: The relative viability was 1.26.

Q: And the relative viability ([14]; first compound 0.1 µM)?
A: The relative viability was 1.24.

Q: And the relative viability ([14]; first compound 0.3162 µM)?
A: Its relative viability is 1.28.

Q: What about the relative viability ([14]; first compound 1 µM) of the same molecule?
A: The relative viability was 1.

Q: What about the relative viability ([15]; first compound 0.01 µM) of the same molecule?
A: The relative viability was 0.423.

Q: What about the relative viability ([15]; first compound 0.03162 µM) of the same molecule?
A: The relative viability was 0.588.

Q: And the relative viability ([15]; first compound 0.1 µM)?
A: Its relative viability is 0.461.

Q: And the relative viability ([15]; first compound 0.3162 µM)?
A: Its relative viability is 0.436.

Q: What about the relative viability ([15]; first compound 1 µM) of the same molecule?
A: The relative viability was 0.208.

Q: And the relative viability ([16]; first compound 0.01 µM)?
A: Its relative viability is 0.94.

Q: What about the relative viability ([16]; first compound 0.03162 µM) of the same molecule?
A: Its relative viability is 0.802.

Q: And the relative viability ([16]; first compound 0.1 µM)?
A: Its relative viability is 0.841.

Q: And the relative viability ([16]; first compound 0.3162 µM)?
A: The relative viability was 0.819.

Q: What about the relative viability ([16]; first compound 1 µM) of the same molecule?
A: Its relative viability is 0.398.

Q: And the relative viability ([17]; first compound 0.01 µM)?
A: Its relative viability is 0.266.

Q: And the relative viability ([17]; first compound 0.03162 µM)?
A: Its relative viability is 0.296.

Q: And the relative viability ([17]; first compound 0.1 µM)?
A: Its relative viability is 0.329.

Q: What about the relative viability ([17]; first compound 0.3162 µM) of the same molecule?
A: Its relative viability is 0.258.

Q: What about the relative viability ([17]; first compound 1 µM) of the same molecule?
A: Its relative viability is 0.283.

Q: What about the relative viability ([18]; first compound 0.01 µM) of the same molecule?
A: Its relative viability is 1.13.

Q: What about the relative viability ([18]; first compound 0.03162 µM) of the same molecule?
A: Its relative viability is 0.879.

Q: And the relative viability ([18]; first compound 0.1 µM)?
A: Its relative viability is 0.758.

Q: What about the relative viability ([18]; first compound 0.3162 µM) of the same molecule?
A: The relative viability was 0.593.

Q: And the relative viability ([18]; first compound 1 µM)?
A: The relative viability was 0.0457.

Q: And the relative viability ([19]; first compound 0.01 µM)?
A: The relative viability was 0.999.

Q: And the relative viability ([19]; first compound 0.03162 µM)?
A: The relative viability was 0.962.

Q: And the relative viability ([19]; first compound 0.1 µM)?
A: Its relative viability is 1.01.

Q: What about the relative viability ([19]; first compound 0.3162 µM) of the same molecule?
A: The relative viability was 1.02.

Q: What about the relative viability ([19]; first compound 1 µM) of the same molecule?
A: The relative viability was 0.903.

Q: What about the relative viability ([20]; first compound 0.01 µM) of the same molecule?
A: The relative viability was 0.897.

Q: And the relative viability ([20]; first compound 0.03162 µM)?
A: Its relative viability is 0.894.

Q: And the relative viability ([20]; first compound 0.1 µM)?
A: Its relative viability is 0.777.

Q: And the relative viability ([20]; first compound 0.3162 µM)?
A: The relative viability was 0.809.

Q: And the relative viability ([20]; first compound 1 µM)?
A: Its relative viability is 0.742.

Q: And the relative viability ([21]; first compound 0.01 µM)?
A: Its relative viability is 0.713.

Q: What about the relative viability ([21]; first compound 0.03162 µM) of the same molecule?
A: Its relative viability is 0.421.

Q: What about the relative viability ([21]; first compound 0.1 µM) of the same molecule?
A: Its relative viability is 0.516.

Q: What about the relative viability ([21]; first compound 0.3162 µM) of the same molecule?
A: The relative viability was 0.508.

Q: What about the relative viability ([21]; first compound 1 µM) of the same molecule?
A: Its relative viability is 0.142.
